According to patent US11976083B2, “Inhibitors of peptidylarginine deiminases” (Gilead Sciences, Inc., priority 2020, dated 2024):

Target: T1, human PAD4 (Homo sapiens, UniProt Q9UM07)
T1 construct: human PAD4 (NM_012387), A2-P663, was PCR amplified; His-SUMO (N, cleaved yes); made in house; host or cells: E. coli BL21(DE3)
Assay: In vitro PAD4 BAEE biochemical assay
Details: BAEE substrate 3 mM, 5 nM PAD4, 2 mM calcium chloride; geometric mean of multiple experiments
Method in brief: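 Ammonia produced by BAEE deimination (3 mM substrate, 2 h, 25 °C) was read as fluorescent isoindole after o-phthalaldehyde/DTT derivatization, ex 405 nm/em 535 nm. Human PAD4 at 5 nM final, 2 mM calcium, pH 7.6 MOPS; compound preincubated 30 min. IC50s, normalized to BB-Cl-Amidine and DMSO controls, were geometric-mean averaged.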

T1 sequence (Q9UM07 2-663): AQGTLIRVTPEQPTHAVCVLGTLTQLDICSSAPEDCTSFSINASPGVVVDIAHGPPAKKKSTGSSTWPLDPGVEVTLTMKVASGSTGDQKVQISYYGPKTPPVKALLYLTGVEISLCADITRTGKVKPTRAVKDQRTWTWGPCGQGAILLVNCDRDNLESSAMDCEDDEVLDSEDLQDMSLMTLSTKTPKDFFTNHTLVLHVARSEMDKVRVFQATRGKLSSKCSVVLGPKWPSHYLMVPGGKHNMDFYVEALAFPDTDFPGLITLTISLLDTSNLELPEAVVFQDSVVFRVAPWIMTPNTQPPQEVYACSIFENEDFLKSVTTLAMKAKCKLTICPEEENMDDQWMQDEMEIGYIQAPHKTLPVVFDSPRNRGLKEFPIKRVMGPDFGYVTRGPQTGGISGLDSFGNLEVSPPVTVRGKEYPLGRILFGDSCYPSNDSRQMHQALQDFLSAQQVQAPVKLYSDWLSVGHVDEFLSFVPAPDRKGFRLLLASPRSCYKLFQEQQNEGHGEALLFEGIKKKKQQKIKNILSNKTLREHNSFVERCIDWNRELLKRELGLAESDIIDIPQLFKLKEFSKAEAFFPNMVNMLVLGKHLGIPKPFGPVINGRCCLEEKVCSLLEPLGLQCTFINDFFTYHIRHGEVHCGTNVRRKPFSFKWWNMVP

Row | SMILES | IC50
1 | COc1cc(C(=O)N2CCC[C@@H](N)C2)cc2nc(-c3cc4ccc5nc4n3C[C@H]3C[C@@H]3CCCCC(=O)N[C@@H]5C)n(C)c12 [Example 163, (3~{S},5~{S},12~{R})-18-[5-[(3~{R})-3-aminopiperidine-1-carbonyl]-7-methoxy-1-methyl-benzimidazol-2-yl]-12-methyl-1,11,20-triazatetracyclo[11.5.2.0^{3,5}.0^{16,19}] icosa-13(20),14,16(19),17-tetraen-10-one] | 0.051 µM
2 | COc1cc(C(=O)N2CCC[C@@H](N)C2)cc2nc(-c3cc4ccc5cc4n3CCCCC[C@H]3C[C@@H]3C(=O)N[C@@H]5C)n(C)c12 [Example 164, (2~{R},5~{S},7~{S})-14-[5-[(3~{R})-3-aminopiperidine-1-carbonyl]-7-methoxy-1-methyl-benzimidazol-2-yl]-2-methyl-3,13-diazatetracyclo[11.5.2.0^{5,7}.0^{16,20}] icosa-1(19),14,16(20),17-tetraen-4-one] | 0.033 µM
3 | COc1cc(C(=O)N2CCC[C@@H](N)C2)cc2nc(-c3cc4ccc5cc4n3CCCCC[C@@H]3C[C@H]3C(=O)N[C@@H]5C)n(C)c12 [Example 165, (2~{R},5~{R},7~{R})-14-[5-[(3~{R})-3-aminopiperidine-1-carbonyl]-7-methoxy-1-methyl-benzimidazol-2-yl]-2-methyl-3,13-diazatetracyclo[11.5.2.0^{5,7}.0^{16,20}] icosa-1(19),14,16(20),17-tetraen-4-one] | 0.235 µM
4 | COc1cc(C(=O)N2CCC[C@@H](N)C2)cc2nc(-c3cc4ccc5nc4n3C[C@H]3C[C@@H]3CCCC(C)C(=O)N[C@@H]5C)n(C)c12 (stereo partly drawn) [Example 166, (3~{S},5~{S},12~{R})-18-[5-[(3~{R})-3-aminopiperidine-1-carbonyl]-7-methoxy-1-methyl-benzimidazol-2-yl]-9,12-dimethyl-1,11,20-triazatetracyclo[11.5.2.0^{3,5}.0^{16,19}] icosa-13(20),14,16(19),17-tetraen-10-one] | 0.049 µM
5 | COc1cc(C(=O)N2CCC[C@@H](N)C2)cc2nc(-c3cc4ccc5nc4n3C[C@@H]3C[C@H]3CC[C@H]3C[C@@H]3C(=O)N[C@@H]5C)n(C)c12 [Example 167, (3~{R},5~{R},8~{S},10~{S},13~{R})-19-[5-[(3~{R})-3-aminopiperidine-1-carbonyl]-7-methoxy-1-methyl-benzimidazol-2-yl]-13-methyl-1,12,21-triazapentacyclo[12.5.2.0^{3,5}.0^{8,10}.0^ {17,20}]henicosa-14(21),15,17(20),18-tetraen-11-one] | 0.09 µM
6 | COc1cc(C(=O)N2CCC[C@@H](N)C2)cc2nc(-c3cc4ccc5nc4n3C[C@@H]3C[C@H]3CC[C@@H]3C[C@H]3C(=O)N[C@@H]5C)n(C)c12 [Example 168, (3~{R},5~{R},8~{R},10~{R},13~{R})-19-[5-[(3~{R})-3-aminopiperidine-1-carbonyl]-7-methoxy-1-methyl-benzimidazol-2-yl]-13-methyl-1,12,21-triazapentacyclo[12.5.2.0^{3,5}.0^{8,10}.0^ {17,20}]henicosa-14(21),15,17(20),18-tetraen-11-one] | 0.039 µM
7 | C[C@H]1NC(=O)C(C)(C)CCCCCCn2c(-c3nc4cc(C(=O)N5CCC[C@@H](N)C5)c(F)cc4n3C3CC3)cc3ccc1nc32 [Example 169, (11~{R})-17-[5-[(3~{R})-3-aminopiperidine-1-carbonyl]-1-cyclopropyl-6-fluoro-benzimidazol-2-yl]-8,8,11-trimethyl-1,10,19-triazatricyclo[10.5.2.0^{15,18}]nonadeca-12(19),13,15(18),16-tetraen-9-one] | 0.069 µM
8 | COc1cc(C(=O)N2CCC[C@@H](N)C2)cc2nc(-c3cc4ccc5nc4n3CCCCCc3c(cnn3C)C(=O)N[C@@H]5C)n(C)c12 [Example 170, (2~{R})-16-[5-[(3~{R})-3-aminopiperidine-1-carbonyl]-7-methoxy-1-methyl-benzimidazol-2-yl]-2,8-dimethyl-3,7,8,15,21-pentazatetracyclo[13.5.2.0^{5,9).0^{18,22}] docosa-1(21),5(9),6,16,18(22),19-hexaen-4-one] | 0.118 µM
9 | COc1cc(C(=O)N2CCC[C@@H](N)C2)cc2nc(-c3cc4ccc5nc4n3CCCC#Cc3cnn(C)c3C(=O)N[C@@H]5C)n(C)c12 [Example 171, (2~{R})-16-[5-[(3~{R})-3-aminopiperidine-1-carbonyl]-7-methoxy-1-methyl-benzimidazol-2-yl]-2,6-dimethyl-3,6,7,15,21-pentazatetracyclo[13.5.2.0^{5,9}.0^{18,22}] docosa-1(21),5(9),7,16,18(22),19-hexaen-10-yn-4-one] | 0.804 µM
10 | COc1cc(C(=O)N2CCC[C@@H](N)C2)cc2nc(-c3cc4ccc5nc4n3CCCCCc3cnn(C)c3C(=O)N[C@@H]5C)n(C)c12 [Example 172, (2~{R})-16-[5-[(3~{R})-3-aminopiperidine-1-carbonyl]-7-methoxy-1-methyl-benzimidazol-2-yl]-2,6-dimethyl-3,6,7,15,21-pentazatetracyclo[13.5.2.0^{5,9}.0^{18,22}] docosa-1(21),5(9),7,16,18(22),19-hexaen-4-one] | 0.101 µM
11 | COc1cc(C(=O)N2CC[C@@H](OC)[C@@H](N)C2)cc2nc(-c3cc4ccc5cc4n3CCCCCCC(C)(C)C(=O)N[C@@H]5C)n(C)c12 [Example 173, (11~{R})-17-[5-[(3~{S},4~{R})-3-amino-4-methoxy-piperidine-1-carbonyl]-7-methoxy-1-methyl-benzimidazol-2-yl]-8,8,11-trimethyl-1,10-diazatricyclo[10.5.2.0^{15,18}]nonadeca-12(19),13,15(18),16-tetraen-9-one] | 0.109 µM
12 | COc1cc(C(=O)N2CC[C@@H](OC)[C@@H](N)C2)cc2nc(-c3cc4ccc5nc4n3CCCCC[C@@H]3C[C@H]3C(=O)N[C@@H]5C)n(C)c12 [Example 174, (2~{R},5~{R},7~{R})-14-[5-[(3~{S),4~{R})-3-amino-4-methoxy-piperidine-1-carbonyl]-7-methoxy-1-methyl-benzimidazol-2-yl]-2-methyl-3,13,19-triazatetracyclo[11.5.2.0^{5,7}.0^{16,20}] icosa-1(19),14,16(20),17-tetraen-4-one] | 0.08 µM
13 | COc1cc(C(=O)N2CC[C@@H](OC)[C@@H](N)C2)cc2nc(-c3cc4ccc5nc4n3CCCCC[C@H]3C[C@]3(C)C(=O)N[C@@H]5C)n(C)c12 [Example 175] | 0.231 µM
14 | C[C@H]1NC(=O)C(C)(C)CCCCCCn2c(-c3nc4cc(C(=O)N[C@@H]5CCCNC5)c(F)cc4n3C3CC3)cc3ccc1nc32 [Example 176, 1-cyclopropyl-6-fluoro-~{N}-[(3~{R})-3-piperidyl]-2-[(11~{R})-8,8,11-trimethyl-9-oxo-1,10,19-triazatricyclo[10.5.2.0^{15,18}]nonadeca-12(19),13,15(18),16-tetraen-17-yl]benzimidazole-5-carboxamide] | 0.196 µM
15 | COc1cc(C(=O)NC2CNC2)cc2nc(-c3cc4ccc5nc4n3CCCCCCC(C)(C)C(=O)N[C@@H]5C)n(C)c12 [Example 177, ~{N}-(azetidin-3-yl)-7-methoxy-1-methyl-2-[(11~{R})-8,8,11-trimethyl-9-oxo-1,10,19-triazatricyclo[10.5.2.0^{15,18}]nonadeca-12(19),13,15(18),16-tetraen-17-yl]benzimidazole-5-carboxamide] | 30.5 µM
